Results taken from US20250339409A1, “USES OF PAN BET INHIBITORS” (VYNE THERAPEUTICS INC., priority 2021, published 2025).
Values joined by “and” are separate entries in the source; they are usually repeats but may differ in a detail not shown here. Identical values can stand only once. Like-named read-outs stand apart in the source and are kept apart here.

How the values were obtained:
[1] = system: IL4, IL13, IL31, CCL17, CCL26, CCL2 gene expression in Th2 stimulated human skin; test: Th2 stimulated human skin explants, RT-qPCR of biomarkers; format: cell-based; conditions: for inhibition at 0.01 µM / inhibition at 0.04 µM / inhibition at 0.16 µM / inhibition at 0.63 µM / inhibition at 2.5 µM / inhibition at 10 µM: Homo sapiens; for inhibition at 2.5 µM: 2.50 μM
Description: (§1) Human skin biopsy tissue was stimulated to induce a Th17 immuno-phenotype using a method derived from Feghali-Bostwick et al. Induction of a Th17 phenotype in human skin—a mimic of dermal inflammatory diseases, Methods and Protocols, 2, 45 (2019). The pharmacodynamic assay described therein involves a similar paradigm to elicit a Th2 response and is used to evaluate the therapeutic potential of the active compounds (e.g., BETi1; and
(§2) Freshly excised healthy human skin tissue from abdominoplasties is defatted, cleaned and sectioned into 7 mm biopsies. The biopsies are placed in Transwell® inserts with the epidermis apical and exposed to air and the dermis submerged in media in the basal chamber. The biopsies are pre-treated overnight at 37° C., 5% CO2 with different compounds and controls added to the media in the basal chamber.
(§3) The next day, contents of the basal chamber is replaced with fresh media containing the test compound (listed below) and a stimulation cocktail for either Th2 inflammation (proprietary of service provider cocktail) or Th17 inflammation (mix of antibodies against CD3, CD28, IL-4, IFNγ and recombinant IL-1β, IL-6, IL-21, TGF-β). The biopsies are incubated at 37° C., 5% CO2 for a further 24 hrs.
(§4) A list of all the treatments is provided below: • 1. Untreated control (for both stimulations) • 2. Th2 stimulated control • 3. Th17 stimulated control • 4. Th2+BETia at 0.01, 0.04, 0.16, 0.63, 2.50, and 10 μM • 5. Th2+BETi1 at 0.01, 0.04, 0.16, 0.63, 2.50, and 10 μM • 6. Th2+Ruxolitinib at 0.01, 0.04, 0.16, 0.63, 2.50, and 10 μM • 7. Th2+betamethasone valerate 210 μM (equivalent to 0.01%) • 8. Th17+BETia at 10 μM • 9. Th17+BETi1 at 10 μM • 10. Th17+Ruxolitinib at 10 μM • 11. Th17+betamethasone valerate 210 μM (equivalent to 0.01%)
(§5) After harvesting, the biopsies are cut in half, and one half is homogenized and used for RNA extraction by standard methods and inflammatory pathways is assessed by RT-qPCR. The ability of BETi1 or BETia to inhibit the activity of up to six biomarkers per stimulation is reported as percent activity calculated to stimulated control and fold change in gene expression calculated to untreated control with respect to Th2 (IL4, IL13, IL31, CCL17, CCL26, CCL2) and Th17 (CXCL10, IL17α, IL22, IL36γ, CCL20, SerpinB4). Statistical analysis is performed on data sets from all 3 donors combined and compares the percent inhibition of each biomarker by each treatment calculated to its respective vehicle.
(§6) qPCR values were calculated using the relative quantification approach outlined by Livak, et al (2001) (Section 9, Reference 2). The Ct values (threshold cycle) defined as the fractional cycle number at which the amount of amplified target reaches a fixed threshold, were normalised to the Ct value of an internal biomarker or ‘housekeeping gene’ (GAPDH). The higher limit of detection was set at a Ct value of 40, and any target having not reached Ct by 40 cycles was set to this value. The delta Ct values (dt(Ct)) refers to the Ct of the gene of interest minus the Ct of the internal biomarker. The ddt(Ct) is the dt(Ct) value of the gene minus the average dt(Ct) value of the untreated samples. The ddt(Ct) is converted to power by the equation; =power(2,dt(Ct)). Fold change was calculated as ratio of the power of the gene of interest divided by the average power of the untreated samples. This normalizes the untreated samplers to a value of 1. For the comparison of multiple skin donors, the stimulated samples were normalized to 100% maximum activity (such to normalize variability between different skin donors). Percent activity was calculated as the percent increase or decrease in stimulation compared to the stimulated samples set at 100% maximum activity. Percent change was calculated as: Inhibition=(100−(avg % activity/stimulated)*100). Statistical analysis was performed using One-way ANOVA with Dunnett's Multiple Comparisons (non parametric). […]

[2] = system: CXCL10, IL17α, IL22, IL36γ, CCL20, SerpinB4 gene expression in Th17 stimulated human skin; test: Th17 stimulated human skin explants, RT-qPCR of biomarkers; format: cell-based; conditions: calculated to Th17 stimulated control, three skin donors; for inhibition at 10 µM: Homo sapiens
Description: as §1, §2, §3, §4, §5, §6

[3] = system: anti collagen antibodies induced arthritis (ACAIA); test: ACAIA mice: hot plate withdrawal latency; format: in vivo, Balb/c mice
Protocol: On days 0, 5 and 11 animals are placed on hot plate apparatus (53±1° C.) and the time until the first response is observed and recorded.

[4] = system: E-cadherin; test: RHE vitiligo model: E-cadherin secretion by ELISA; format: cell-based, human; conditions: Rux 1.5%, 48 h
Protocol: (§7) […] Three epidermis samples per condition are fixed in 4% formaldehyde solution and embedded in paraffin for further analysis (morphology analysis, melanin and melanocytes localisation/quantification). Three other epidermis samples per condition are put in a specific lysis buffer for total RNA extraction.
(§8) At the end of the treatments, culture media is collected (from 3 epidermis per condition), aliquoted and stored at −20° C. until use in ELISA assays. The quantity of MMP-9 secreted by the epidermis at the end of the treatments is analysed using the human MMP-9 Quantikine ELISA kit (Bio-Techne; DMP900). The secretion of E-cadherin in culture media is measured using to human E-cadherin Quantikine ELISA kit (Bio-Techne; DCADE0) dedicated for the measurement of natural human E-cadherin in culture supernates, serum, plasma, urine, and saliva.
(§9) The ELISAs are performed following the instructions of the supplier. The quantities of MMP-9 and E-cadherin are determined by comparisons with standard curves performed with recombinant human MMP-9 or E-cadherin provided in the kits.
(§10) Quantification of secretion of MMP-9 and E-cadherin by ELISA from collected culture medium was conducted in accordance with Method E. The results, shown in FIG. 5A and FIG. 5B are based on Tables 23 and 24 respectively and presented in percentage of release in comparison to the stimulated control. A statistical analysis (student t-test) was performed to compare the effects of the treatments with the formulations to the vehicle (with $: 0.05>p>0.01; $$: 0.01>p>0.001; and $$$: p<0.001). The same analysis was performed to compare the effects of the vehicle and of the unstimulated control to the stimulated control (with *: 0.05>p>0.01; **: 0.01>p>0.001; and ***: p<0.001). The analysis was performed from three replicates per condition (n=3). The mean of the three values and the standard deviation are presented on the histograms in FIG. 5A and FIG. 5B. As shown in Table 21 and FIG. 5A and consistent with the results of Part A, MMP-9 secretion was increased following the stimulation with the cytokines, which validates the assay.

[5] = system: MMP-9; test: RHE vitiligo model: MMP-9 secretion by ELISA; format: cell-based, human; conditions: Rux 1.5%, 48 h
Protocol: as §7, §8, §9, §10

[6] = 210 μM, calculated to Th2 stimulated control
[7] = calculated to Th2 stimulated control, read-out: % Inhibition CCL17
[8] = calculated to Th2 stimulated control, read-out: % Inhibition CCL26
[9] = calculated to Th2 stimulated control, read-out: % Inhibition IL31
[10] = calculated to Th2 stimulated control, read-out: % inhibition CCL2
[11] = calculated to Th2 stimulated control, read-out: % inhibition IL4
[12] = calculated to Th2 stimulated control, read-out: % inhibition IL13
[13] = TNF-α/IFN-γ stimulated RHE, replicates N1-N3
[14] = culture medium of RHE, TNF-α 12 ng/ml/IFN-γ 12 ng/ml
[15] = culture medium of RHE, TNF-α 12 ng/ml/IFN-γ 12 ng/ml, replicates N1-N3

CCCCC(=O)O[C@]1(C(=O)CO)[C@@H](C)C[C@H]2[C@@H]3CCC4=CC(=O)C=C[C@]4(C)[C@@]3(F)[C@@H](O)C[C@@]21C [Betamethasone, betamethasone valerate, reference compound]
% Inhibition IL31 ([1]; 10 μM, calculated to Th2 stimulated control): 87.4% | % Inhibition CCL26 [1, 6]: 64.4% | % inhibition IL13 [1, 6]: 97.8% | % inhibition CCL20 ([2]; 10 μM): N/I (N/I indicates no inhibition.) | % inhibition IL17α ([2]; 210 μM): 73.1% | % inhibition IL36γ ([2]; 210 μM): 77.7%

N#CC[C@H](C1CCCC1)n1cc(-c2ncnc3[nH]ccc23)cn1 [Ruxolitinib, reference compound]
inhibition at 0.01 µM [1, 7]: 23.2% | inhibition at 0.01 µM [1, 8]: 14% | inhibition at 0.01 µM [1, 9]: < 0% | inhibition at 0.01 µM [1, 10]: < 0% | inhibition at 0.01 µM [1, 11]: < 0% | inhibition at 0.01 µM [1, 12]: 2.3% | inhibition at 0.04 µM [1, 7]: 47.7% | inhibition at 0.04 µM [1, 8]: 35.3% | inhibition at 0.04 µM [1, 10]: < 0% | inhibition at 0.04 µM [1, 11]: 41.9% | inhibition at 0.16 µM [1, 9]: 57.9% | inhibition at 0.16 µM [1, 10]: < 0% | inhibition at 0.16 µM [1, 12]: 66.3% | inhibition at 0.63 µM [1, 7]: 34% | inhibition at 0.63 µM [1, 8]: 88.3% | inhibition at 0.63 µM [1, 9]: 55.9% | inhibition at 0.63 µM [1, 10]: < 0% | inhibition at 0.63 µM [1, 11]: 53.8% | inhibition at 0.63 µM [1, 12]: 48.8% | inhibition at 2.5 µM [1, 9]: < 0% | inhibition at 2.5 µM [1, 10]: 33% | inhibition at 2.5 µM [1, 11]: 20.5% | inhibition at 2.5 µM [1, 12]: 18.5% | inhibition at 10 µM ([1]; 10 μM, calculated to Th2 stimulated control, read-out: % Inhibition CCL17): 89.9% | inhibition at 10 µM ([1]; 10 μM, calculated to Th2 stimulated control, read-out: % Inhibition CCL26): 98.5% | inhibition at 10 µM ([1]; 10 μM, calculated to Th2 stimulated control, read-out: % Inhibition IL31): 29.9% | inhibition at 10 µM ([1]; 10 μM, calculated to Th2 stimulated control, read-out: % inhibition CCL2): ~57% | inhibition at 10 µM ([1]; 10 μM, calculated to Th2 stimulated control, read-out: % inhibition IL4): 48.5% | inhibition at 10 µM ([1]; 10 μM, calculated to Th2 stimulated control, read-out: % inhibition IL13): ~54% | highest percent inhibition of CCL17 gene expression ([1]; Th2-mediated stimulation, 10 μM): ca. 90% | inhibition at 10 µM ([2]; 10 μM, read-out: % inhibition CCL20): < 0% | inhibition at 10 µM ([2]; 10 μM, read-out: % inhibition CXCL10): ~99% | inhibition at 10 µM ([2]; 10 μM, read-out: % inhibition IL17α): 2.8% | inhibition at 10 µM ([2]; 10 μM, read-out: % inhibition IL22): ~99% | inhibition at 10 µM ([2]; 10 μM, read-out: % inhibition Serpinβ4): 92%

C[C@@H]1C[C@H]2[C@@H]3CCC4=CC(=O)C=C[C@]4(C)[C@@]3(F)[C@@H](O)C[C@]2(C)[C@@]1(O)C(=O)CO [Dex]
Hot Plate Change in withdrawal latency (Avg.) ([3]; 1 mg/kg IA, Baseline): 11.71 s | Hot Plate Change in withdrawal latency (Avg.) ([3]; 1 mg/kg IA, Day 5): 10.14 s | Hot Plate Change in withdrawal latency (Avg.) ([3]; 1 mg/kg IA, Day 11): 12.86 s | Hot Plate Change in withdrawal latency (Avg.) ([3]; 1 mg/kg IP, Baseline): 11.86 s | Hot Plate Change in withdrawal latency (Avg.) ([3]; 1 mg/kg IP, Day 5): 12.43 s | Hot Plate Change in withdrawal latency (Avg.) ([3]; 1 mg/kg IP, Day 11): 12.29 s

N#CC[C@H](C1CCCC1)n1cc(-c2ncnc3[nH]ccc23)cn1 [Rux]
E-Cad (% stimulated ctl) Mean ([4]; TNF-α/IFN-γ stimulated RHE): 160% | E-Cad (% stimulated ctl) [4, 13]: 77% and 247% and 155% | Mean conc E-Cad [4, 14]: 3.7 ng/mL | Conc E-Cad [4, 15]: 1.8 ng/mL and 5.7 ng/mL and 3.6 ng/mL | MMP-9 (% stimulated ctl) Mean ([5]; TNF-α/IFN-γ stimulated RHE): 11% | MMP-9 (% stimulated ctl) [5, 13]: 2% and 28% and 4% | Mean conc MMP-9 [5, 14]: 2.0 ng/mL | Conc MMP-9 [5, 15]: 0.4 ng/mL and 4.9 ng/mL and 0.7 ng/mL
